Results on six molecules are retold here after patent publication US20230159527A1, “COMPOUNDS AS BCL-2 INHIBITORS” (Fochon Pharmaceuticals, Ltd., priority 2020, published 2023).

The term IC50 denotes the concentration at which inhibition is half-maximal.

For the assay, the system named is Toledo cells. Nature of the assay: Cell proliferation assay, Toledo cells (MTS, 72 h). In kind it is cell-based. Conditions: Homo sapiens, Toledo cells, MTS, read-out: Toledo IC50. The procedure:
MTS testing kit was purchased from Promega (Madison, Wis., USA). The RPMI-1640, Fetal bovine serum and Penicillin-Streptomycin were purchased from BI (Biological Industries, Beit Haemek, Israel). Dimethyl sulfoxide (DMSO) was purchased from Sigma (St. Louis, Mo., USA). Toledo (ATCC catalog #: CRL-2631) cells were cultured in RPMI-1640 supplemented with Penicillin-Streptomycin and 10% FBS.
To investigate whether a compound is able to inhibit the activity of BCL-2 in cells, a mechanism-based assay using Toledo lines was developed. In this assay, the inhibition of BCL-2 was reflected by the inhibition of cell proliferation of Toledo cells. Cells were plated into 96-well plates at the optimized cell density of 30000 cells/well. Plates were incubated at 37° C., with 5% CO2 for 4h. Compounds were serially diluted and added to the plates with the final concentrations of 10000, 3333.3, 1111.1, 370.4, 123.5, 41.2, 13.7, 4.6 and 1.5 nM. Plates were incubated at 37° C., with 5% CO2 for 72 h. 20 μl MTS was added into each well and the plates were incubated at 37° C., with 5% CO2 for exactly 2 h. The absorbance was measured by a microplate reader at 490 nm. IC50 was calculated using GraphPad Prism 5.0 software.
`CC(C)c1ccccc1[C@@H]1CCC[C@@H]1N1CC2(CCN(c3ccc(C(=O)NS(=O)(=O)c4cc5c(c([N+](=O)[O-])c4)N[C@@H]([C@H]4CC[C@](C)(O)CC4)CO5)c(Oc4cnc5[nH]cc(F)c5c4)c3)CC2)C1=O` (single isomer, unassigned) [Example D-248, 2-((3-fluoro-1H-pyrrolo[2,3-b]pyridin-5-yl)oxy)-N-(((S)-3-((1r,4S)-4-hydroxy-4-methylcyclohexyl)-5-nitro-3,4-dihydro-2H-benzo[b] [1,4]oxazin-7-yl)sulfonyl)-4-(2-((1S,2S or 1R,2R)-2-(2-isopropylphenyl)cyclopentyl)-1-oxo-2,7-diazaspiro [3.5]nonan-7-yl)benzamide]: the IC50 was found to be 1 nM. Regarding `CC(C)c1ccccc1[C@H]1CCCN1C1CC2(CCN(c3ccc(C(=O)NS(=O)(=O)c4cc5c(c([N+](=O)[O-])c4)NC([C@@H]4COCCO4)CO5)c(Oc4cnc5[nH]cc(F)c5c4)c3)CC2)C1` (single isomer, unassigned) [Example D-49a, N-(((R or S)-3-((R)-1,4-dioxan-2-yl)-5-nitro-3,4-dihydro-2H-benzo[b][1,4]oxazin-7-yl)sulfonyl)-2-((3-fluoro-1H-pyrrolo[2,3-b]pyridin-5-yl)oxy)-4-(2-((R or S)-2-(2-isopropylphenyl)pyrrolidin-1-yl)-7-azaspiro[3.5]nonan-7-yl)benzamide], the IC50 came out at 1 nM. As for `CC(C)c1ccccc1[C@@H]1CCC[C@@H]1N1CC2(CCN(c3ccc(C(=O)NS(=O)(=O)c4ccc(NC[C@H]5CC[C@](C)(O)CC5)c([N+](=O)[O-])c4)c(Oc4cc5cc[nH]c5nc4OC[C@@H]4COCCO4)c3)CC2)C1` (single isomer, unassigned) [Example D-236, 2-((6-(((S)-1,4-dioxan-2-yl)methoxy)-1H-pyrrolo[2,3-b]pyridin-5-yl)oxy)-N-((4-(((1r,4r)-4-hydroxy-4-methylcyclohexyl)methyl)amino)-3-nitrophenyl)sulfonyl)-4-(2-((1S,2S or 1R,2R)-2-(2-isopropylphenyl)cyclopentyl)-2,7-diazaspiro[3.5]nonan-7-yl)benzamide], the IC50 amounted to 1 nM. As for `CC(C)c1ccccc1[C@@H]1CCC[C@@H]1N1CC2(CCN(c3ccc(C(=O)NS(=O)(=O)c4ccc(NC[C@H]5CC[C@](C)(O)CC5)c([N+](=O)[O-])c4)c(Oc4cc5cc[nH]c5nc4Cl)c3)CC2)C1` (single isomer, unassigned) [Example D-232, 2-((6-chloro-1H-pyrrolo[2,3-b]pyridin-5-yl)oxy)-N-((4-((1r,4r)-4-hydroxy-4-methylcyclohexyl)methyl)amino)-3-nitrophenyl) sulfonyl)-4-(2-((1S,2S or 1R,2R)-2-(2-isopropylphenyl) cyclopentyl)-2,7-diazaspiro[3.5] nonan-7-yl)benzamide], the IC50 came to 1 nM. Turning to `CC(C)c1ccccc1[C@@H]1CCC[C@@H]1N1CC2(CCN(c3ccc(C(=O)NS(=O)(=O)c4cnc(NC[C@H]5CC[C@](C)(O)CC5)c([N+](=O)[O-])c4)c(Oc4cc5cc[nH]c5nc4Cl)c3)CC2)C1` (relative stereo) [Example A-159, 2-((6-chloro-1H-pyrrolo[2,3-b]pyridin-5-yl)oxy)-N-((6-((((1r,4r)-4-hydroxy-4-methylcyclohexyl)methyl)amino)-_ 5-nitropyridin-3-yl)sulfonyl)-4-(2-((1S,2S or 1R,2R)-2-(2-isopropylphenyl)cyclo-pentyl)-2,7-diazaspiro[3.5]nonan-7-yl) benzamide], the IC50 was found to be 1 nM.

For `CC(C)c1ccccc1C1=CCCC1N1CC2(CCN(c3ccc(C(=O)NS(=O)(=O)c4cc5c(c([N+](=O)[O-])c4)N[C@@H]([C@H]4CC[C@](C)(O)CC4)CO5)c(Oc4cnc5[nH]cc(F)c5c4)c3)CC2)C1` (stereo partly drawn) [Example D-77, 2-((3-fluoro-1H-pyrrolo[2,3-b]pyridin-5-yl)oxy)-N-(((S)-3-((1r,4S)-4-hydroxy-4-methylcyclohexyl)-5-nitro-3,4-dihydro-2H-benzo[b] [1,4]oxazin-7-yl)sulfonyl)-4-(2-(2-(2-isopropylphenyl)cyclopent-2-en-1-yl)-2,7-diazaspiro[3.5]nonan-7-yl)benzamide], the IC50 worked out at 1 nM.
